Test results published in the supplement of paper PMC10307832.

Columns and labels:
Experiment in all cases: relative viability (nuclei count vs DMSO), 5 days (fraction); higher = more cells survive
EMC-BAC-2 = tested on: EMC-BAC-2
How it was run: (§1)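 The day after seeding in 1536-well plates, lung cancer cell lines were treated by pin tool with a single drug, or with a fixed anchor-drug dose together with five library-drug doses (not always all listed) in √10 steps. After 5 days, a combined fix-and-stain solution (final 0.05% Triton X-100, 1% formaldehyde, 1 ug/ml Hoechst) was added. Nuclei counted on 4× images gave relative viability as treated counts over vehicle counts, reported as the median of duplicate plates.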

LCLC-97TM1 = tested on: LCLC-97TM1
How it was run: as §1

LXF-289 = tested on: LXF-289
How it was run: as §1

NCI-H1395 = tested on: NCI-H1395
How it was run: as §1

NCI-H1651 = tested on: NCI-H1651
How it was run: as §1

NCI-H1734 = tested on: NCI-H1734
How it was run: as §1

NCI-H1793 = tested on: NCI-H1793
How it was run: as §1

NCI-H1915 = tested on: NCI-H1915
How it was run: as §1

NCI-H1944 = tested on: NCI-H1944
How it was run: as §1

NCI-H2023 = tested on: NCI-H2023
How it was run: as §1

NCI-H2087 = tested on: NCI-H2087
How it was run: as §1

NCI-H2126 = tested on: NCI-H2126
How it was run: as §1

NCI-H3122 = tested on: NCI-H3122
How it was run: as §1

NCI-H322M = tested on: NCI-H322M
How it was run: as §1

NCI-H596 = tested on: NCI-H596
How it was run: as §1

NCI-H650 = tested on: NCI-H650
How it was run: as §1

NCI-H661 = tested on: NCI-H661
How it was run: as §1

NCI-H838 = tested on: NCI-H838
How it was run: as §1

PC-14 = tested on: PC-14
How it was run: as §1

SW 1573 = tested on: SW 1573
How it was run: as §1

UMC-11 = tested on: UMC-11
How it was run: as §1

Cc1cn(-c2cc(NC(=O)c3ccc(C)c(Nc4nccc(-c5cccnc5)n4)c3)cc(C(F)(F)F)c2)cn1 [Nilotinib] + CS(=O)(=O)CCNCc1ccc(-c2ccc3ncnc(Nc4ccc(OCc5cccc(F)c5)c(Cl)c4)c3c2)o1 [Lapatinib] (partner 2 µM)
relative viability (EMC-BAC-2; first compound 0.001 µM): 0.834 | relative viability (EMC-BAC-2; first compound 0.003162 µM): 0.952 | relative viability (EMC-BAC-2; first compound 0.01 µM): 0.924 | relative viability (EMC-BAC-2; first compound 0.03162 µM): 0.784 | relative viability (EMC-BAC-2; first compound 0.1 µM): 0.606 | relative viability (LCLC-97TM1; first compound 0.001 µM): 0.777 | relative viability (LCLC-97TM1; first compound 0.003162 µM): 1.05 | relative viability (LCLC-97TM1; first compound 0.01 µM): 1.12 | relative viability (LCLC-97TM1; first compound 0.03162 µM): 1.16 | relative viability (LCLC-97TM1; first compound 0.1 µM): 0.268 | relative viability (LXF-289; first compound 0.001 µM): 0.839 | relative viability (LXF-289; first compound 0.003162 µM): 1.05 | relative viability (LXF-289; first compound 0.01 µM): 0.927 | relative viability (LXF-289; first compound 0.03162 µM): 0.941 | relative viability (LXF-289; first compound 0.1 µM): 0.63 | relative viability (NCI-H1395; first compound 0.001 µM): 1.02 | relative viability (NCI-H1395; first compound 0.003162 µM): 0.575 | relative viability (NCI-H1395; first compound 0.01 µM): 0.9 | relative viability (NCI-H1395; first compound 0.03162 µM): 1.14 | relative viability (NCI-H1395; first compound 0.1 µM): 0.596 | relative viability (NCI-H1651; first compound 0.001 µM): 0.815 | relative viability (NCI-H1651; first compound 0.003162 µM): 0.803 | relative viability (NCI-H1651; first compound 0.01 µM): 1.06 | relative viability (NCI-H1651; first compound 0.03162 µM): 0.737 | relative viability (NCI-H1651; first compound 0.1 µM): 0.359 | relative viability (NCI-H1734; first compound 0.001 µM): 1 | relative viability (NCI-H1734; first compound 0.003162 µM): 1.14 | relative viability (NCI-H1734; first compound 0.01 µM): 1.27 | relative viability (NCI-H1734; first compound 0.03162 µM): 0.808 | relative viability (NCI-H1734; first compound 0.1 µM): 0.517 | relative viability (NCI-H1793; first compound 0.003162 µM): 0.842 | relative viability (NCI-H1793; first compound 0.01 µM): 1.02 | relative viability (NCI-H1793; first compound 0.03162 µM): 0.859 | relative viability (NCI-H1793; first compound 0.1 µM): 0.21 | relative viability (NCI-H1915; first compound 0.001 µM): 0.986 | relative viability (NCI-H1915; first compound 0.003162 µM): 1.13 | relative viability (NCI-H1915; first compound 0.01 µM): 1.22 | relative viability (NCI-H1915; first compound 0.03162 µM): 0.98 | relative viability (NCI-H1915; first compound 0.1 µM): 0.517 | relative viability (NCI-H1944; first compound 0.001 µM): 0.894 | relative viability (NCI-H1944; first compound 0.003162 µM): 0.996 | relative viability (NCI-H1944; first compound 0.01 µM): 0.742 | relative viability (NCI-H1944; first compound 0.03162 µM): 1.03 | relative viability (NCI-H1944; first compound 0.1 µM): 0.389 | relative viability (NCI-H2023; first compound 0.001 µM): 0.702 | relative viability (NCI-H2023; first compound 0.003162 µM): 0.611 | relative viability (NCI-H2023; first compound 0.01 µM): 0.739 | relative viability (NCI-H2023; first compound 0.03162 µM): 0.775 | relative viability (NCI-H2023; first compound 0.1 µM): 0.15 | relative viability (NCI-H2087; first compound 0.001 µM): 0.62 | relative viability (NCI-H2087; first compound 0.003162 µM): 1.21 | relative viability (NCI-H2087; first compound 0.01 µM): 1.17 | relative viability (NCI-H2087; first compound 0.03162 µM): 0.686 | relative viability (NCI-H2087; first compound 0.1 µM): 0.289 | relative viability (NCI-H2126; first compound 0.001 µM): 0.729 | relative viability (NCI-H2126; first compound 0.003162 µM): 0.813 | relative viability (NCI-H2126; first compound 0.01 µM): 0.664 | relative viability (NCI-H2126; first compound 0.03162 µM): 0.858 | relative viability (NCI-H2126; first compound 0.1 µM): 0.507 | relative viability (NCI-H3122; first compound 0.001 µM): 0.988 | relative viability (NCI-H3122; first compound 0.003162 µM): 1.07 | relative viability (NCI-H3122; first compound 0.01 µM): 0.991 | relative viability (NCI-H3122; first compound 0.03162 µM): 1.01 | relative viability (NCI-H3122; first compound 0.1 µM): 0.98 | relative viability (NCI-H322M; first compound 0.001 µM): 0.557 | relative viability (NCI-H322M; first compound 0.003162 µM): 0.515 | relative viability (NCI-H322M; first compound 0.03162 µM): 0.596 | relative viability (NCI-H322M; first compound 0.1 µM): 0.649 | relative viability (NCI-H596; first compound 0.001 µM): 1.01 | relative viability (NCI-H596; first compound 0.003162 µM): 1.15 | relative viability (NCI-H596; first compound 0.01 µM): 1.09 | relative viability (NCI-H596; first compound 0.03162 µM): 0.984 | relative viability (NCI-H596; first compound 0.1 µM): 0.88 | relative viability (NCI-H650; first compound 0.001 µM): 0.897 | relative viability (NCI-H650; first compound 0.003162 µM): 0.65 | relative viability (NCI-H650; first compound 0.01 µM): 0.918 | relative viability (NCI-H650; first compound 0.03162 µM): 0.851 | relative viability (NCI-H650; first compound 0.1 µM): 0.682 | relative viability (NCI-H661; first compound 0.001 µM): 0.446 | relative viability (NCI-H661; first compound 0.003162 µM): 0.445 | relative viability (NCI-H661; first compound 0.01 µM): 0.549 | relative viability (NCI-H661; first compound 0.03162 µM): 0.42 | relative viability (NCI-H661; first compound 0.1 µM): 0.436 | relative viability (NCI-H838; first compound 0.001 µM): 0.927 | relative viability (NCI-H838; first compound 0.003162 µM): 1.02 | relative viability (NCI-H838; first compound 0.01 µM): 0.925 | relative viability (NCI-H838; first compound 0.03162 µM): 0.817 | relative viability (NCI-H838; first compound 0.1 µM): 0.609 | relative viability (PC-14; first compound 0.001 µM): 0.328 | relative viability (PC-14; first compound 0.003162 µM): 0.422 | relative viability (PC-14; first compound 0.01 µM): 0.367 | relative viability (PC-14; first compound 0.03162 µM): 0.318 | relative viability (PC-14; first compound 0.1 µM): 0.277 | relative viability (SW 1573; first compound 0.003162 µM): 1.26 | relative viability (SW 1573; first compound 0.01 µM): 1.17 | relative viability (SW 1573; first compound 0.03162 µM): 1.1 | relative viability (SW 1573; first compound 0.1 µM): 1.27 | relative viability (UMC-11; first compound 0.001 µM): 0.995 | relative viability (UMC-11; first compound 0.003162 µM): 1.2 | relative viability (UMC-11; first compound 0.01 µM): 1.27 | relative viability (UMC-11; first compound 0.03162 µM): 0.851 | relative viability (UMC-11; first compound 0.1 µM): 0.255
